The values that follow are results of earlier work, collected in patent publication US9409783B2, “Method for manufacturing mesoporous materials, materials so produced and use of mesoporous materials” (Nanologica AB, priority 2008, dated 2016).

SMILES strings stand for the structures.

The conditions of this series: L-glutamate group of folic acid; deprotonated and negatively charged above this pH.

For `Nc1nc2ncc(CNc3ccc(C(=O)N[C@@H](CCC(=O)O)C(=O)O)cc3)nc2c(=O)[nH]1` [folic acid], the pKa value is recorded as 8.3.
